Assay results taken from publication PMC4820820, “CETSA screening identifies known and novel thymidylate synthase inhibitors and slow intracellular activation of 5-fluorouracil” (Nature Communications, 2016).
Several values for one entry are separate records, joined by “and”; a condition that tells them apart may be missing. Identical values can stand only once. Like-named read-outs stand apart in the source and are kept apart here.

Columns and labels:
[1] = target: T1, human thymidylate synthase (TS) (Homo sapiens, UniProt P04818); experiment: ITDRF CETSA at 50 °C, AlphaScreen detection, live K562 cells; type: cell-based; settings: for EC50: 2 h preincubation
T1 construct: screening in live, non-engineered cells expressing thymidylate synthase; endogenous in cells; host or cells: K562 (human myelogenous leukemia) cells
Procedure: For the […] experiments 11-point dose-response curves with three-fold difference in concentration between wells were generated using the Bravo liquid handling system (all serial dilutions were done in 100% DMSO). […] The concentration of DMSO was 0.5% in all samples. […] The assay ready plates were prepared as outlined above for the screen.
(§1) The screen procedure started with the addition of 5 μl of a suspension of K562 cells at a density of 10 million cells per ml to all wells of a 384 well hardshell PCR plate (HSR480, BIORAD) using an electronic multichannel pipette (Biohit). […] For the time-course experiments the incubation times were altered to include also 10 min, 30 min and 6 h. […] After the incubation step the plates were transiently heated at 50 °C for 3 min followed by a controlled cooling to 20 °C for 1 min using a real-time PCR machine (LightCycler480 system, Roche). Plate handling was then as described above for the thermal aggregation experiments. The data were analyzed using microsoft excel and GraphPad Prism 6.
(§2) A calculation of the average and standard error of means for each set of controls also allowed an illustration of how these responses varied over the 32 screening plates. The Z′ factor[38] is commonly used as a measure of how well the assay separates between the controls and this was calculated as described based on the calculated averages and standard deviations of the controls on a per plate basis. For the Tagg shift and the […] experiments the data were analyzed in GraphPad Prism using the Boltzmann sigmoid equation and the saturation binding curve (rectangular hyperbola; binding isotherm) function, respectively. As already discussed[14] these methods make use of equilibrium models for data analysis although the methodology depends on the irreversible aggregation of denatured material. For this reason we refer to the observed responses as apparent and isothermal dose-response fingerprints and are careful with any quantitative interpretations, being well aware of their dependency on experimental conditions. Experiments are on-going to address the quantitative interpretation of CETSA data.

[2] = target: T1, human thymidylate synthase (TS); experiment: CETSA primary screen / single-concentration retest, AlphaScreen, live K562 cells; type: cell-based; settings: for % stabilization in screen at 50 µM: K562, 2 h, read-out: % stabilization in screen
Procedure: Compounds were placed in columns 1–22. […] At the day of the experiment the plates were allowed to thaw for 30 min followed by a brief centrifugation step (1,000 × g for 1 min) prior to removal of the seal. The compounds were then diluted with 20 μl supplemented cell culture medium using a Multidrop Combi reagent dispenser (Thermo Scientific). Finally 5 μl of the diluted compounds were transferred to a 384 well hardshell PCR plate (HSR480, BIORAD) using a Bravo liquid handling platform equipped with a 384-well head (Agilent). […] The final concentration of DMSO in the assay was 0.5% in all samples.
as §1, §2

[3] = Intracellular compound and metabolite concentrations by LC-MS/MS in K562 cells; type: in vitro ADME, human; settings: K562 cells incubated with 100 µM 5-FU, first 6 h
Procedure: Intracellular concentrations of compounds were measured as previously described. Briefly, K562 cells were incubated with the compounds for a predefined time at 37 °C in a 5% CO2 atmosphere. After incubation, the cells were centrifuged (300 × g for 5 min) and a medium sample (supernatant) was collected and diluted 1:10 in a 50 nM warfarin solution (internal standard). The cells were washed with phosphate buffered salt solution and lysed with methanol. Methanol was evaporated and the cell samples were reconstituted in 50 nM warfarin. Samples were analyzed with LC–MS/MS with electrospray ionization in negative mode with transitions monitored as listed in Table 2.

TS = TS (Homo sapiens, UniProt P04818); experiment: Thermal shift in vitro assay on recombinant protein; type: binding; design: His6 tag with TEV site (vector-encoded by pNIC28-Bsa4); made in house; host or cells: Rosetta BL21-DE3 Escherichia coli; settings: nucleoside without enzyme treatment
Procedure: The assay was performed on the iCycler iQ Real Time PCR Detection System (Bio-Rad), using the 96-well thin-wall PCR plate (Bio-Rad). The experiment was conducted in a buffer containing 20 mM HEPES at pH 7.5 and 150 mM NaCl. A total volume of 25 μl solution containing 0.2 mg ml^−1 protein, compounds and × 5 Sypro Orange dye (Invitrogen) diluted from 5,000 × stock was dispensed into the 96-well plate. The same amount of DMSO was added in the control wells. The plates were sealed with Microseal B adhesive sealer (Bio-Rad) and heated in iCycler from 25 to 80 °C (56 heating cycles in 28 min). Fluorescent filter used for Sypro Orange measurements was λexcitation=492 nm and λemission=610 nm. The calculation of the midpoint of the curves (Tm) was performed using the software package XLfit from IDBS within microsoft excel.
Decitabine at a concentration of 1 mM was incubated with 1 mg ml^−1 of recombinant DCK and 2.5 mM ATP in a buffer of 50 mM Tris at pH 7.5, 150 mM NaCl and 0.5 mM MgCl2 at room temperature for 60 min to generate the corresponding monophosphates. To probe for nucleotide deamination the samples were further treated with 1 mg ml^−1 of recombinant DCTD in the presence of 1 mM ATP and 10 μM ZnCl2 for 20 min at room temperature. After incubation, the samples were heated at 95 °C for 10 min and centrifuged for 10 min at the highest speed at 4 °C using a benchtop centrifuge. The supernatant was tested without dilution in thermal shift in vitro assays and the TS enzyme inhibition assay. The supernatants from samples without nucleoside were used as the treatment controls.

[4] = target: T1, human thymidylate synthase (TS); experiment: CETSA Tagg curves, AlphaScreen detection, live K562 cells; type: cell-based; settings: 2 h preincubation, 3 min heating, DMSO control 46.7±0.2 °C
Procedure: The data were analyzed using microsoft excel and GraphPad Prism 6.
as §2

[5] = 50 °C, unit taken from curve axis log [cmp] (M), read-out: ITDRF CETSA (hit confirmation)
[6] = 50 μM compound, 2 h preincubation, 50 °C, 0% = DMSO, 100% = 100 nM raltitrexed

TS, sequence (P04818 whole entry): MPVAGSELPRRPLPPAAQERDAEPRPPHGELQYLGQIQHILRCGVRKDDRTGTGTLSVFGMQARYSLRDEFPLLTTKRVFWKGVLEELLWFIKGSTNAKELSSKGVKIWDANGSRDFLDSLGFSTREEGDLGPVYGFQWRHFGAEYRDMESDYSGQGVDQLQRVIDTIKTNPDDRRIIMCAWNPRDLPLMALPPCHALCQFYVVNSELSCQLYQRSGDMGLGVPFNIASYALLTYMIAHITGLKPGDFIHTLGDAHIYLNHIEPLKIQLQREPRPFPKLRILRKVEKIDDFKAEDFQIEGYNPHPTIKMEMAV
T1 sequence (P04818 2-313 limits assumed): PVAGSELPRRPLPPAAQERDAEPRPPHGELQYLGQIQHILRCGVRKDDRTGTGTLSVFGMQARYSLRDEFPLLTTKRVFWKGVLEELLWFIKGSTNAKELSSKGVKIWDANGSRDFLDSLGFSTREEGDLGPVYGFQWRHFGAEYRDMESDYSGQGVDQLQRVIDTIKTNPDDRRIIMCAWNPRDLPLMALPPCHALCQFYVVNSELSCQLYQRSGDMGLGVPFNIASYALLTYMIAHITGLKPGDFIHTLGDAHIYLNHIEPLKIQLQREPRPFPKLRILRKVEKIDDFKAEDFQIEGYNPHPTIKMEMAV

Molecule `O=c1[nH]c(=O)n([C@@H]2O[C@H](CO)[C@@H](O)[C@H]2O)cc1F` [5-fluorouridine] has an EC50 ([1]; 50 °C for 3 min, read-out: […] EC50 (half-maximal stabilization of TS)) of 4.7e-08 ± 1.5e-08 M.
With `CCc1nc(N)nc(N)c1-c1ccc(Cl)cc1` [CBK041886, Pyrimethamine, reference compound] the % stabilization in screen at 50 µM [2] was 76% and the EC50 [1, 5] was 8.38e-06 M.
With `CC#Cc1cn([C@H]2C[C@@H](O)[C@@H](CO)O2)c(=O)[nH]c1=O` [CBK201182] the “% stabilization in screen” value [2, 6] was 90% and the EC50 [1, 5] was 2.28e-05 M.
With `Cc1cc(C)c(Oc2nc(=O)n([C@H]3C[C@@H](O)[C@@H](CO)O3)cc2F)c(C)c1` [CBK201184] the “% stabilization in screen” value [2, 6] was 66% and the EC50 [1, 5] was 9.17e-06 M.
`C#Cc1cn([C@H]2C[C@H](O)[C@@H](CO)O2)c(=O)[nH]c1=O` [CBK201207, 5-ethynyl-2′-deoxyuridine, reference compound] showed a % stabilization in screen at 50 µM [2, 6] of 102% and an EC50 [1, 5] of 1.41e-09 M.
With `Nc1nc(=O)n([C@H]2C[C@@H](O)[C@@H](CO)O2)cc1O` [CBK201221] the “% stabilization in screen” value [2, 6] was 22% and the EC50 [1, 5] was 3.43e-07 M.
In the case of `COCc1cn(C2CC(O)C(CO)O2)c(=O)[nH]c1=O` (centres unmarked) [CBK201230], the “% stabilization in screen” value [2, 6] is reported as 23% and the EC50 [1, 5] is reported as 1.42e-07 M.
In the case of `CN(C)/C=N/c1nc(=O)n([C@H]2CC(O)[C@@H](CO)O2)cc1/C=C/C(=O)NCCCCCCNC(=O)C(F)(F)F` (some centres unmarked) [CBK201330], the “% stabilization in screen” value [2, 6] is reported as 13%.
For `O=c1[nH]c(=O)n([C@H]2C[C@@H](O)[C@@H](CO)O2)cc1CO` [CBK201332], the “% stabilization in screen” value [2, 6] was 9% and the “% stabilization at retest (6h preincubation)” value ([2]; 6 h preincubation, K562 cells) was 7%.
In the case of `CCOc1nc(=O)c(C)cn1C1CC(O)C(CO)O1` (centres unmarked) [CBK201334], the “% stabilization in screen” value [2, 6] is reported as -1%.
In the case of `COC(=O)/C=C/c1cn(C2OC(CO)C(O)C2O)c(=O)[nH]c1=O` (centres unmarked) [CBK201339], the “% stabilization in screen” value [2, 6] is reported as -1%.
In the case of `O=c1[nH]cc(F)c(=O)[nH]1` [Compound 5-FU, 5-fluorouracil], the “intracellular levels of FdUMP” value [3] is reported as “undetectable”, the % stabilization in screen at 50 µM [2] is reported as 48% and the EC50 ([1]; 50 °C for 3 min, read-out: […] apparent EC50) is reported as 1.9e-05 ± 4e-06 M.
For `O=c1[nH]c(=O)n([C@H]2C[C@H](O)[C@@H](CO)O2)cc1C(F)(F)F` [TFT, 5-trifluoro-2′-deoxythymidine], the “stabilization of recombinant TS in thermal shift assay” value (TS) was “did not stabilize”, the % stabilization in screen at 50 µM [2] was 66% and the EC50 [1, 5] was 3.18e-10 M.
With `O=c1ccn([C@H]2C[C@H](O)[C@@H](CO)O2)c(=O)[nH]1` [deoxyuridine] the “stabilization of recombinant TS in thermal shift assay” value (TS) was “did not stabilize”.
With `O=c1[nH]c(=O)n([C@H]2C[C@H](O)[C@@H](CO)O2)cc1F` [floxuridine, 5-fluorodeoxyuridine] the “stabilization of recombinant TS in thermal shift assay” value (TS) was “did not stabilize”, the % stabilization in screen at 50 µM [2, 6] was 64% and the “apparent Tagg of TS” value ([4]; 15 μM floxuridine) was “above 65 °C”. The “concentration giving stabilization of TS (CETSA)” value ([1]; 10 min of pre-incubation) was “low nM”, the EC50 [1, 5] was 6.61e-11 M and the EC50 ([1]; ITDRFCETSA EC50 (half-maximal stabilization of TS), 50 °C for 3 min, read-out: […] EC50 (half-maximal stabilization of TS)) was 6.5e-11 M and 4.7e-11 M.
In the case of `Cc1nc2ccc(CN(C)c3ccc(C(=O)N[C@@H](CCC(=O)O)C(=O)O)s3)cc2c(=O)[nH]1` [raltitrexed], the “apparent Tagg of TS” value ([4]; 1 μM raltitrexed) is reported as “above 65 °C”.
